# Reference: US20200345637A1, “SUSPENSION COMPOSITIONS OF MULTI-TARGET INHIBITORS” (AIVIVA BIOPHARMA, INC., priority 2018, published 2020)
# Several values for one entry are separate records, joined by “and”; a condition that tells them apart may be missing. Equal values may be shown once. Read-outs that look alike come from different tables or passages of the source.
# Assays:
# [1] = Aqueous solubility of multi-target inhibitors; type: physicochemical; conditions: aqueous (not further specified)
# Description: Non-limiting examples of the useful multi-target inhibitors and their physicochemical forms are given in Table 1 with aqueous solubility information.
# [2] = rabbit, in vivo; for tissue concentrations in the retina and choroid / depot and streaks in vitreous humor by fundus imaging / intravitreal dose remained in the vitreous humor: Dutch Belted
# Procedure: (§2) This study evaluated the tolerability and dispersion of the formulations of nintedanib and lenvatinib over 42 days in the posterior segment of the eyes. A single 50 μL intravitreal administration of the 1% suspension was administered to Dutch Belted rabbits.
# [3] = tested on: choroid neovascularization lesions; assay: Laser-induced choroid neovascularization model in rats; type: in vivo, Brown Norway rats; conditions: intravitreal injection 50 μg/eye; fluorescein angiography Day 22
# Procedure: The tolerability, efficacy, and ocular distribution were evaluated in a laser-induced choroid neovascularization model in rats. […] In this 22-day study, effects of local administration of the multi-target (i.e., multi-target kinase) inhibitors nintedanib and lenvatinib were examined on the development of new vessels. Vehicle and positive control groups were included in the study. Female Brown Norway rats were divided into 7 separate treatment groups. On Day 1, laser treatments were performed on all animals using a 520 nm thermal laser to generate a total of three lesions per eye. […] On Day 3, bilateral intravitreal injections of vehicle, 5 μg/eye of rat anti-VEGF antibody, 50 μg/eye of nintedanib, or 50 μg/eye of lenvatinib were performed. On Day 22, fluorescein angiography was performed on all animals, and the lesion sizes/areas were determined using image analysis software (Image J). […] Concentrations of test compounds in ocular tissues and plasma were measured by LCMS-MS after intravitreal or eyedrop administration in rats. […] The eyedrop administration produced higher drug concentrations in the ocular surface, such as conjunctiva, than the intravitreal injection. Three times daily eyedrop administration maintained higher concentrations in plasma than a single intravitreal injection.
# [4] = tested on: linear incision wound sites; assay: Intradermal injection along linear incision wounds, histological evaluation; type: in vivo, minipigs; conditions: for granulation tissue formation compared to vehicle treated control wounds / presence of myofibroblasts compared to vehicle treated control wounds: 2% suspension (sorafenib 1% suspension); for SMA staining / dermis fibrin / dermis fibroplasia / dermis provisional matrix / epidermis hyperplasia / inflammation / subcutis fibroplasia / subcutis mixed cell infiltrate: microscopic grade over 29 days
# Procedure: The purpose of this study was to evaluate the suspension formulation when administered via intradermal injection with axitinib, nintedanib, sorafenib, and lenvatinib to the dorsal skin along linear incisions of minipigs.
# Four male minipigs were dosed. Animals were dosed once via intradermal injection along the edges of each of 10 wound sites for each animal (5 wounds on each side of the dorsum [perpendicular to the spine], approximately 3 cm in length and 3 cm distance from the spine). Axitinib, nintedanib, lenvatinib, and the vehicle control article were administered via eight 0.1 mL intradermal injections around each respective wound site (one injection/cm on both sides of the wound), for a total volume of 0.8 mL/wound site. Sorafenib was administered via the same method at a volume of 0.2 mL/injection, for a total volume of 1.6 mL/wound site. The vehicle control article was Vehicle for Test Articles axitinib, nintedanib, lenvatinib, and sorafenib.
# A generalized measure of inflammation, including inflammatory cell infiltrate, fibrin deposition, fibroplasia, epithelial hyperplasia and areas of tissue necrosis were assessed microscopically. […] For test agent treated wounds, all were graded as slight on Day 4, and there was no consistent difference over time as compared to the control group.
# [5] = systemic; literature or US label; cited from earlier work
# in vivo [6] = conditions: Dutch Belted, rabbit
# Procedure: as §2
# [7] = Terminal sterilization and stability assay of formulated suspension; type: physicochemical
# Description: (§1) Examples 1-3 depict the results of physical testing of some subject formulations.
# [8] = Suspension physical testing: particle size, pH, osmolality, syringeability; type: physicochemical; parameters: API Raw Material PSD D50 / Formulated Suspension Particle size distribution D50 / API Raw Material PSD D90 / Formulated Suspension Particle size distribution D90: unit not given here; conditions: for Formulated Suspension Syringeability: needle gauge passed
# Description: as §1
# [9] = rabbit, in vivo
# Procedure: (§3) This study evaluated the local tolerance of vehicle, axitinib, pirfenidone, sorafenib and lenvatinib and ocular distribution of axitinib, sorafenib and lenvatinib (0.3% w/w) when administered by topical ocular instillation in the eyes of New Zealand white rabbits (n=6 per group). […] On Dosing Day 5, the animals were sacrificed and eyes were enucleated. Ocular and plasma concentrations of select compounds were measured by LC-MS/MS.
# in vivo [10] = assay: in vivo; parameters: species or system New Zealand White rabbits; conditions: male, New Zealand White, rabbit
# Procedure: Five to seven male New Zealand White rabbits were used per treatment group. Each eye received a 35 μl eyedrop of vehicle, or respective drugs (0.3%) three times daily for 10 days. After the last dose on Day 11, the animals were sacrificed and eyes were enucleated, and plasma and the ocular tissues were collected. Tissue and plasma concentrations of these compounds were measured by LC-MS/MS.
# in vivo [11] = conditions: New Zealand White, rabbit
# Procedure: as §3
solubility [1] [µg/mL],tissue concentrations in the retina and choroid [2],depot and streaks in vitreous humor by fundus imaging ([2]; 42 days),intravitreal dose remained in the vitreous humor ([2]; 42 days),concentration at 29 days (in vivo [6]) [ng/mL],concentration at 42 days (in vivo [6]) [ng/mL],"Assay (% of labeled claim) of Formulated Suspension, Initial ([7]; Autoclave)",SMILES,lesion sizes relative to vehicle-treated eyes [3],granulation tissue formation compared to vehicle treated control wounds [4],presence of myofibroblasts compared to vehicle treated control wounds [4],SMA staining [4],dermis fibrin [4],dermis fibroplasia [4],dermis provisional matrix [4],epidermis hyperplasia [4],inflammation [4],subcutis fibroplasia [4],subcutis mixed cell infiltrate [4],terminal plasma half-life in man [5] [h],"Assay (% of labeled claim) of Formulated Suspension, 4 months (40° C./75% RH) ([7]; Gamma irradiation)",also measured
9,higher than 1 μg/gm,remained present out to Day 42 postdose,4-7%,0.252,0.348,96.0 % of labeled claim,COC(=O)c1ccc2c(c1)NC(=O)/C2=C(\Nc1ccc(N(C)C(=O)CN2CCN(C)CC2)cc1)c1ccccc1 [Nintedanib],significantly reduced lesion sizes,delay in granulation tissue formation,prolonged presence of myofibroblasts,none to moderate,slight to moderate,none to slight,marked,minimal to moderate,slight to moderate,none to moderate,slight to marked,9.5,90.0 % of labeled claim and 97.9 % of labeled claim,"Concentrations in conjunctival tissue [2]: mostly under quantitation limit; Assay (% of labeled claim) of Formulated Suspension, 6 weeks (40° C./75% RH) ([7]; Gamma irradiation): 98.1 % of labeled claim and 99.7 % of labeled claim; Assay (% of labeled claim) of Formulated Suspension, Initial ([7]; Gamma irradiation): 101.8 % of labeled claim and 103.0 % of labeled claim; API Raw Material PSD D50 [8]: D50: 68; API Raw Material PSD D90 [8]: D90: 105; Formulated Suspension Osmolality [8]: 207 mOsm/kg; Formulated Suspension Particle size distribution D50 [8]: D50: 22; Formulated Suspension Particle size distribution D90 [8]: D90: 35; Formulated Suspension pH [8]: 7.6; Formulated Suspension Syringeability [8]: Pass 23G"
4,over 1 μg/gm,remained present out to Day 42 postdose,3-9%,4.94,3.91,99.0 % of labeled claim,COc1cc2nccc(Oc3ccc(NC(=O)NC4CC4)c(Cl)c3)c2cc1C(N)=O [Lenvatinib],significantly reduced lesion sizes,delay in granulation tissue formation,prolonged presence of myofibroblasts,slight,minimal to slight,minimal to slight,marked to minimal,slight to none,slight to marked,moderate to minimal,slight to severe,30,99.8 % of labeled claim and 100.2 % of labeled claim,"intravitreal dose remained in the vitreous humor ([2]; 29 days): 9-17%; concentrations in the choroid and retina [9]: significant concentrations; drug concentrations in anterior tissues of conjunctiva, sclera and cornea [9]: high drug concentrations; concentration at 11 day (after the last dose) (in vivo [10]): 98.5 ng/mL; lesion sizes relative to positive control, rat anti-VEGF [3]: significantly reduced lesion sizes; Assay (% of labeled claim) of Formulated Suspension, 6 weeks (40° C./75% RH) ([7]; Gamma irradiation): 99.2 % of labeled claim and 99.8 % of labeled claim; Assay (% of labeled claim) of Formulated Suspension, Initial ([7]; Gamma irradiation): 101.4 % of labeled claim and 102.4 % of labeled claim; API Raw Material PSD D50 [8]: D50: 164; API Raw Material PSD D90 [8]: D90: 346; Formulated Suspension Osmolality [8]: 201 mOsm/kg; Formulated Suspension Particle size distribution D50 [8]: D50: 7; Formulated Suspension Particle size distribution D90 [8]: D90: 25; Formulated Suspension pH [8]: 7.6; Formulated Suspension Syringeability [8]: Pass 27G; concentration at 5 day of dosing (in vivo [11]): 131 ng/mL"
